{
  "source": "patent US11654195B2",
  "about": "“Eco-friendly smart photosensitizer and photo-stem cell therapy product comprising same” (priority 2019, dated 2023)",
  "test_system": "HeLa cells",
  "assay": "Confirmation of location of nanosphere in cells (confocal microscope)",
  "assay_type": "cell-based",
  "details": "HeLa cells 1×10^5, 1.25 μg/ml",
  "protocol": "In order to observe cancer cell targeting of nanospheres of the biocompatible material sample in which the hydroxypropyl methylcellulose of Example 1 was bonded to porfimer sodium by an ester bond, that is, the accumulation location and accumulation rate in cancer cells, HeLa cells (1×10^5 cells) were treated with each of 1.25 μg/ml of the nanospheres of the biocompatible material sample in which the hydroxypropyl methylcellulose prepared in Example 1 was bonded to porfimer sodium by an ester bond and 1.25 μg/ml of unmodified porfimer sodium as a control and then the location in cells over time was observed using a confocal microscope.",
  "data": [
    {"substance": "porfimer sodium [unmodified porfimer sodium]", "values": [
      {"measurement": "location in cells over time", "value": "located at different sites in cells"}
    ]}
  ]
}
